We go through 56 compounds from US11466003B2, “Nitrogenous heterocyclic aromatic compound, preparation method therefor, pharmaceutical composition thereof, and application thereof” (SHANGHAI YINGLI PHARMACEUTICAL CO., LTD, priority 2016, dated 2022).

What is called IC50 is the concentration at which inhibition is half-maximal.

The structures appear in SMILES notation. Bounds are passed on as bounds.

Sequence of ALK5 (P36897 34-503, species assumed): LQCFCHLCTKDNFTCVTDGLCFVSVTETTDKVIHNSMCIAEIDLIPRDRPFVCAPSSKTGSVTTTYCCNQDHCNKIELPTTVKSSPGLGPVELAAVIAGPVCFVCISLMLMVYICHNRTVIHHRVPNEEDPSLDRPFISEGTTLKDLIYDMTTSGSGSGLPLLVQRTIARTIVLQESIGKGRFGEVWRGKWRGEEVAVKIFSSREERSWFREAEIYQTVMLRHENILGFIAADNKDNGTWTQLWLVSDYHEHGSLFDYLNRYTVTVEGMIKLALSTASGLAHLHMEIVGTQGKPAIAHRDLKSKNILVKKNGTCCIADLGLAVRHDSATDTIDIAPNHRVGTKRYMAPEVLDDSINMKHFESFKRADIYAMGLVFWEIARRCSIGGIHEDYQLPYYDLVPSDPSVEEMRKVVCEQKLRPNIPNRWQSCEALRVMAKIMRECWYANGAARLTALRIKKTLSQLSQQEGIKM

This experiment addresses ALK5 (Homo sapiens (Human), UniProt P36897). Put plainly: Evaluation of IC50 of inhibitory activity toward ALK5 enzyme (ADP-Glo kinase assay). Format: biochemical. The following applies: 25 nM ALK5, 0.1 mg/mL peptide TGFbR1, 7 μM ATP, 30° C. 1 hour, ADP-Glo luminescence. How it is done:
5. […] The value of the luminescence reading was converted to % inhibition by formula (% inhibition=(max−sample RLU)/(max−min)×100, wherein, “min” refers to control fluorescence reading of reaction of no enzyme; “max” refers to the fluorescence reading of the sample with DMSO added as a control. The data was imported into MS Excel and curve fitting was performed using GraphPad Prism. IC50 values was calculated.
A general note: ADP-Glo turns the ADP formed in a reaction into a luminescent signal.
With `Cc1cccc(-c2ccccc2-c2ccc3ncc(C(=O)O)n3c2)n1` [Compound 1], the midpoint of inhibition, the IC50, lay at 192 nM. This lies in the sub-micromolar range.
Compound `Cc1cccc(-c2ccccc2-c2ccc3ncc(C(N)=O)n3c2)n1` [Compound 2] displayed an IC50 of 16.5 nM.
Compound `CNC(=O)c1cnc2ccc(-c3ccccc3-c3cccc(C)n3)cn12` [Compound 3] displayed an IC50 of 27 nM.
The compound `Cc1cccc(-c2ccccc2-c2ccc3ncc(CN)n3c2)n1` [Compound 4] displayed an IC50 of 5700 nM.
Regarding `Cc1cccc(-c2ccccc2-c2ccc3ncc(C(=O)N(C)C)n3c2)n1` [Compound 5], the midpoint of inhibition, the IC50, lay at 243 nM.
As for `Cc1cccc(-c2c(F)cccc2-c2ccc3ncc(C(N)=O)n3c2)n1` [Compound 6], the IC50 was determined as 82 nM.
`NC(=O)c1cnc2ccc(-c3ccccc3-c3ccccn3)cn12` [Compound 7]: 85 nM corresponded to half-maximal inhibition (IC50).
The result for `Cc1cccc(-c2cccc(F)c2-c2ccc3ncc(C(N)=O)n3c2)n1` [Compound 8] reads 45 nM; that for `Cc1cccc(-c2ccc(F)cc2-c2ccc3ncc(C(N)=O)n3c2)n1` [Compound 9], 16 nM; that for `Cc1cccc(-c2cc(F)ccc2-c2ccc3ncc(C(N)=O)n3c2)n1` [Compound 10], 35 nM.
The result for `Cc1cccc(-c2ccccc2-c2ccc3nccn3c2)n1` [Compound 11] reads 145 nM; that for `Cc1cccc(-c2ccccc2-c2ccc3ncc(C(=O)NO)n3c2)n1` [Compound 12], 45 nM.
Turning to `Cc1cccc(-c2ccccc2-c2ccc3ncnc(N)c3c2)n1` [Compound 13], half-maximal inhibition (IC50) was put at 337 nM. Against the preceding compound, the IC50 is about 7.5-fold higher.
In turn, `Cc1cccc(-c2ccccc2-c2ccn3ncc(C(N)=O)c3c2)n1` [Compound 14] had an IC50 of 53 nM.
Take `Cc1cccc(-c2ccccc2-c2ccc3ncnn3c2)n1` [Compound 15]: the IC50 is 360 nM.
As for `Cc1cccc(-c2ccccc2-c2ccc3[nH]ncc3c2)n1` [Compound 16], the IC50 amounted to 1300 nM.
`Cc1cccc(-c2ccccc2-c2ccc3nncn3c2)n1` [Compound 17]: the IC50 was above 10000 nM.
The compound `Cc1cccc(-c2ccccc2-c2ccc3nnc(C(N)=O)n3c2)n1` [Compound 18] showed an IC50 of 4740 nM. In other words, the single-digit micromolar range.
The compound `Cc1cccc(-c2ccccc2-c2ccc3c(cnn3C(N)=O)c2)n1` [Compound 19] registered a concentration for half-maximal inhibition (IC50) above 10000 nM.
In turn, `Cc1cccc(-c2ccccc2-c2ccc3ncc(C#N)n3c2)n1` [Compound 20] came in with an IC50 of 535 nM.
The result for `Cc1cccc(-c2ccccc2-c2ccc3ncc(-c4nnn[nH]4)n3c2)n1` [Compound 21] reads 72 nM; that for `Cc1cccc(-c2ccccc2-c2ccc3ncc(N)n3c2)n1` [Compound 22], 560 nM.
`Cc1cccc(-c2ccncc2-c2ccc3ncc(C(N)=O)n3c2)n1` [Compound 23] yielded an IC50 of 110 nM.
The result for `COc1cccc(-c2ccccc2-c2ccc3ncc(C(N)=O)n3c2)n1` [Compound 24] reads 45 nM; that for `Cc1cccc(-c2ccc(C#N)cc2-c2ccc3ncc(C(N)=O)n3c2)n1` [Compound 25], 73 nM; that for `Cc1csc(-c2ccccc2-c2ccc3ncc(C(N)=O)n3c2)n1` [Compound 26], 38 nM.
The compound `Cc1nc(-c2ccccc2-c2ccc3ncc(C(N)=O)n3c2)cs1` [Compound 27] had an IC50 of 193 nM.
In turn, `Cc1cccc(-c2ccccc2-c2ccc3ncc(NC=O)n3c2)n1` [Compound 28] returned an IC50 of 674 nM. This IC50 is about 3.5-fold higher than that of the compound before.
The result for `COc1ccc(-c2cccc(C)n2)c(-c2ccc3ncc(C(N)=O)n3c2)c1` [Compound 29] reads 38 nM.
As to `Cc1cccc(-c2ccccc2-c2ccc3nc(C)c(C(N)=O)n3c2)n1` [Compound 30], the IC50 was 2930 nM.
The result for `Cc1cccc(-c2ccccc2-c2ccc3ncc(C)n3c2)n1` [Compound 31] reads 126 nM; that for `Cc1ccn(-c2ccccc2-c2ccc3ncc(C(N)=O)n3c2)n1` [Compound 32], 339 nM.
Turning to `Cc1cccc(-c2ccccc2-c2ccc3occ(C(N)=O)c3c2)n1` [Compound 33], the IC50 stood at 221 nM.
Consider `Cc1cccc(-c2ccccc2-c2ccc3ncc(S(N)(=O)=O)n3c2)n1` [Compound 34], for which 581 nM corresponded to half-maximal inhibition (IC50).
The result for `Cc1cccc(-c2ccccc2-c2ccc3ncc(C(=N)N)n3c2)n1` [Compound 35] reads 579 nM; that for `Cc1cccc(-c2ccc(C(N)=O)cc2-c2ccc3ncc(C(N)=O)n3c2)n1` [Compound 37], 63 nM.
For `Cc1nc(-c2ccccc2-c2ccc3ncc(C(N)=O)n3c2)ccc1F` [Compound 38], half-maximal inhibition (IC50) required 18 nM.
The compound `Cc1nc(-c2ccccc2-c2ccc3ncc(C(N)=O)n3c2)ccc1Cl` [Compound 39] gave an IC50 of 196 nM.
Take `Cc1ccc(F)c(-c2ccccc2-c2ccc3ncc(C(N)=O)n3c2)n1` [Compound 40]: 12 nM corresponded to half-maximal inhibition (IC50).
In the case of `Cc1ccnc(-c2ccccc2-c2ccc3ncc(C(N)=O)n3c2)n1` [Compound 42], the concentration for half-maximal inhibition (IC50) amounted to 144 nM.
The result for `Cc1cncc(-c2ccccc2-c2ccc3ncc(C(N)=O)n3c2)n1` [Compound 44] reads 322 nM; that for `NC(=O)c1cnc2ccc(-c3ccccc3-c3cccc(C(F)(F)F)n3)cn12` [Compound 45], 15 nM.
Take `Cn1ccc(-c2ccccc2-c2ccc3ncc(C(N)=O)n3c2)n1` [Compound 47]: 126 nM corresponded to half-maximal inhibition (IC50).
The result for `Cc1nccc(-c2ccccc2-c2ccc3ncc(C(N)=O)n3c2)n1` [Compound 48] reads 237 nM.
The result for `Cc1cccc(-c2ccccc2-c2ccc3nc[nH]c(=O)c3c2)n1` [Compound 49] reads 102 nM; that for `Cc1cccc(-c2ccccc2-c2ccc3ncc(C(N)=O)nc3c2)n1` [Compound 52], 415 nM.
Compound `Cc1cccc(-c2cscc2-c2ccc3ncc(C(N)=O)n3c2)n1` [Compound 53] registered an IC50 of 6.9 nM.
Regarding `Cc1cccc(-c2ccccc2-c2ccc3ncc(C(N)=O)n3n2)n1` [Compound 54], the IC50 was determined as 98 nM.
In turn, `Cc1cccc(-c2ccc(OCc3ccccc3F)cc2-c2ccc3ncc(C(N)=O)n3c2)n1` [Compound 55] gave an IC50 of 13 nM.
The result for `Cc1cccc(-c2cc3nccn3cc2-c2ccc3ncc(C(N)=O)n3c2)n1` [Compound 57] reads 56 nM.
`Cc1cccc(-c2ccccc2-c2ccc3ncc(C(=O)NC4CC4)n3c2)n1` [Compound 58] gave an IC50 of 46 nM.
For the compound `Cc1cccc(-c2ccc(Oc3ccccc3F)cc2-c2ccc3ncc(C(N)=O)n3c2)n1` [Compound 59], the IC50 amounted to 39 nM.
`Cc1cccc(-c2ccccc2-c2ccc3ncc(C(=O)NCCN4CCOCC4)n3c2)n1` [Compound 60] displayed an IC50 of 64 nM.
In turn, `Cc1cccc(-c2ccccc2-c2ccc3ncc(C(=O)NC4CCOCC4)n3c2)n1` [Compound 61] gave an IC50 of 114 nM.
Consider `Cc1coc(-c2ccccc2-c2ccc3ncc(C(N)=O)n3c2)n1` [Compound 63], for which inhibition was half-maximal at 74 nM (IC50).
`Cc1cccc(-c2ccccc2-c2ccnc3ccc(C(N)=O)cc23)n1` [Compound C-1, reference compound] had an IC50 above 10000 nM.
